From BigSolDB 2.1

Settings: in water

O=S(=O)([O-])c1ccc(Nc2nc(Nc3ccc(/C=C/c4ccc(Nc5nc(Nc6ccc(S(=O)(=O)[O-])cc6)nc(N6CCOCC6)n5)cc4S(=O)(=O)[O-])c(S(=O)(=O)[O-])c3)nc(N3CCOCC3)n2)cc1.[Na+].[Na+].[Na+].[Na+]
Settings | solubility (mole fraction)
273.15 K | 0.00029
278.45 K | 0.000399
283.35 K | 0.000545
288.75 K | 0.000757
293.25 K | 0.00099
298.75 K | 0.00137
303.15 K | 0.00179
307.55 K | 0.00219
310.75 K | 0.00264
313.95 K | 0.00319
